Measurements taken from article PMC12851007 (Angewandte Chemie (International Ed. in English), 2025).
Like-named read-outs stand apart in the source and are kept apart here.

Experiments:
[1] = CX4/LCG supramolecular tandem membrane assay, POPC vesicles; type: in vitro ADME; conditions: 30 µM peptide; 25 µM POPC⸧CX4/LCG-LUVs (inside 700 µM CX4, 500 µM LCG) in 10 mM Hepes, pH 7.0, 25 °C; fluorescence λexc 369/λem 502 nm; peptide at 60 s, TX-100/protamine at 600 s; fractional activity; n = 1
Description: Membrane Activity M easurements
Vesicle preparation. 100 µ L of a solution of 25 mg/ml of POPC in chloroform or 200 µ L of a solution of 25 mg/ml of EYPC in chloroform was purged with nitrogen and dried overnight under hi gh vacuum. The thin lipid film was rehydrated with 1 ml reh ydrati on buffer (= inside buffer, see Tabl e S2 ) b y agitation at room temperature for 30min and then subjected to 2 0 freeze- th aw c ycles (freezing in liquid nitro gen and thawing at 40 °C). […]
Ta b l e S 2. Combinations of lipids and inside and outside buffer for CX4/LCG -LUVs.
No. Lipid Inside buffer = rehydration buffer Outside buffer
(4) POPC 10 mM Hepes, 700 µM CX4, 500 µM LCG, 10 mM Hepes buffer, 175 mM glucose, pH 7.5 [a] 175 mM glucose, pH 7.5 [a]
[a] Glucose b uffers (183 mOsm/L at 25 °C) were used within one week after preparation.
Vesicle quality control. T o ensure the absence of the CX4/ LCG reporter pair in the ex travesicular ph ase, 20 µL of the collected liposome fr action w as diluted to 2 ml with outside buffer and the fluor escen ce (λ exc = 369 nm; λ em = 502 nm) was recorded during the addition of […]
The final lipid content in the liposome suspension after p repa rat ion and separ ation was d etermined b y NMR as p reviousl y reported. Assay protocol. An appropriate volume of the liposome stock solutions was diluted to 2m L with outside buffer in a 10 ×10 mm quartz glass cuvette to afford a phospholipid concentration of 25 µM. The cuvette was placed into a thermostatted fluorimeter sample holder at 25.0 °C and gentl y stirred at 300 rpm. Subsequently, the time-dependent change in fluorescence intensity (λ exc = 369 nm; λ em = 502 nm) was record ed during addition of 20 µ L of peptide stock solutions of varying concentrations at 60 s. At 600 s, 20µ L o f a solution containing 1.6% (wt/vol) TX-100 and 1.5 mM protamine was added for calibration to affo rd 0.016% (wt/vol) TX-100 and 15 µM protamine final concent rations.
Time-dep endent fluores cence intensit y traces, I (t), were subsequentl y normalized to fractional intensities, If(t), using equation (1). Therein, I 0 is the intensity just before addition of peptide and I ∞ is the constant intensit y after addition of the calibration cockt ail.
IIf (tt ) = II (tt )−II0II∞ − II0 (1)
The concentration-dependent fractional intensities just before the addition of the calibration cocktail, If, were then normalized to fractional membrane activities, Y, using equation (2).
Therein, If,0 is the fractional intensit y just before addition of the calibration cocktail in absence of peptide and I f,∞ is the constant fractional intensity after addition of the calibration cocktail.
YY = IIf − IIf,0IIf,∞ − IIf,0 (2)
The fractional membrane activities, Y, were subsequently plotted against the peptide concentration, c, and analysed using the Hill equation (3) to obtain the effective molar concentration, EC50, and the Hill coefficient, n. Y0 and Y ma x are the fractional membrane activities in absen ce o f p eptide and at max imal peptide concent rations. For peptides with too little activity to determine Y ma x ex perimentall y, Y max was fixed at 1.0 during fitting. […]

[2] = type: binding; conditions: LCG displacement in 10 mM Hepes, pH 7.0, 25 °C; fluorescence; error = SD of nonlinear fit, n = 1
Description: Fluorescence titrations were performed as previously described and the resulting titration curves we re an al yz ed usi ng established pro cedur es . Competitive titrations were eithe r anal yz ed with a fitting function assuming 1:1 host-competitor complexes[3] or with a fitting function involving hi gher complex es with more than on e h ost bound per peptide.[4] In the latter c ase, an identical binding affinity is assumed for all binding sites. […]
Figure S1. a) Fluorescence titration of 0.5 µM LCG ( λex = 369 n m) with varying concentrations of CX4 in 10 mM Hepes, pH 7.0, 25 °C .b) Respective titration curve ( λem = 502 nm) with fitted line . […]
Figure S2. a) Competitive fluorescence titration wit h 0.5 µM LCG, 1 µM CX4 ( λex = 369 nm) and varying concentrations of penetratin in 10 mM Hepes, pH 7.0, 25 °C . b) Respective titration c ur ve (λem = 502 nm) with fitted line .
(also on this page, place not known: analyzed using procedures. were either analyzed host -competitor higher complexes one host case, 700 Intensity Intensity (λex °C. line. 650 0 Intensity 0 Intensity b) curve (λem nm) with line.)

[3] = In 10 mM NaH2PO4, pH 7.2; ref [46]; cited from earlier work
Description: Table 1 Binding constants of peptides to CX4. ^a) | column: K a (M^−1)

[4] = CX4/LCG tandem membrane assay with subsequent addition of spermine (transient vs stable pores); type: in vitro ADME; conditions: TP10 0.2 µM or melittin 5 nM at 60 s, spermine 20 µM at 340 s, 10 mM Hepes, 175 mM glucose, pH 7.5
Description: This means that TP10 renders the vesicle membranes only transiently permeable, while after some time, the pores “close”, most likely due to equilibration of the inside and outside concentrations of TP10. At sufficiently low TP10 concentrations, the vesicles have consequently released only some of their content after a certain incubation time and no further release of encapsulated compounds is observed thereafter. The transient nature of the TP10 pores was also confirmed herein by the CX4/LCG tandem membrane assay (Figure 4, black line). […] At this point of time, the TP10 pores should be either closed, or there should be some remaining stable equilibrium pores, which are too small to allow efflux of relatively large CX4 and/or LCG (MW > 500 Da), but sufficiently large to allow CF efflux (MW = 376 Da). Closed pores would refer to the previously reported graded mechanism, whereas the latter would point toward an all‐or‐none release mechanism.^[ [12], [70] ^] […] The newly developed assay has therefore the added capacity to afford more fine‐grained mechanistic information on membrane activity.
The blue trace is a control to illustrate full dissociation of the CX4/LCG complex during vesicle lysis by TX‐100.
LysisLysis vesicle lysisvesicle lysis […]
calibration cocktail at 600 s. a) Original changes in fluorescence intensity of LCG ( λex = 369 nm, λem = […]

[5] = Dual-channel assay, CX4/LCG channel, POPC vesicles; type: in vitro ADME; conditions: dual-channel; seven independent POPC LUV batches (n = 7), penetratin 15 µM, Pep-1 10 µM, LRLLRW 30 µM, TP10 0.15 µM, 10 mM Hepes, 175 mM glucose, pH 7.5, t-test/ANOVA p < 0.001; melittin: Figure S35 and Table S9
Description: With the established identical extravesicular conditions in both assays, we further envisaged a simultaneous measurement of both assays within the same solution to enhance the comparability of the measurements. This became possible after optimization of the excitation and emission wavelengths. […] A further optimization was required, because the dye concentrations in the CF assay and the CX4/LCG assay are largely different.^[ [51], [52] ^] Consequently, simultaneous monitoring requires the detection of a low amount of LCG in the presence of a high concentration of the much more brightly fluorescent CF, which challenges the dynamic range of a typical fluorescence spectrometer in a dual‐channel measurement. To reduce the fluorescence read‐out of CF, the excitation wavelength was shifted from the absorption maximum at ca. 490 nm to 525 nm, where CF has a much lower absorbance, and the emission in the CF channel was shifted from its maximum at ca. 515 nm to 545 nm to further reduce the fluorescence of CF. To maintain a high LCG fluorescence, excitation was performed at the absorption maximum at 369 nm. Since CF has a residual absorbance at this excitation wavelength, emission in the LCG channel was monitored at 475 nm instead of 502 nm to eliminate spill‐over of CF fluorescence into the LCG channel. […]
Time-dep endent fluores cence intensit y traces, I (t), were subsequentl y normalized to fractional intensities, If(t), using equation (1) and the concentration- dependent fractional intensities just before the addition of th e calibration co cktail, I f, w ere then normaliz ed to fr actional membran e activities, Y, using equation (2). The fractional membrane activities, Y, were subsequently plotted against the peptide concentration, c, and anal ysed using the Hill equation (3) to obtain the effective molar concentration, EC 50, and the Hill coefficient, n. For peptides with too low activity to determine Y max ex perimentall y, Y max was fixed at 1.0 during fitting. […]
Dual-Channel Measurements
Vesicles w ere prep ared a s described abov e (se e en try (4) in Table S2 and entry (3) in Table S3) and eluted with freshl y prepared 10 mM Hepes, 175mM glucos e, pH 7.5 i n the size exclusion chromatograph y. For the measurements, an approp riate volume o f the liposome stock solutions was diluted to 2m L in a 10× 10 mm PS cuvette wi th 10 mM Hep es bu ffer and 175 mM glucos e at pH 7.5 to afford 12.5µM POPC ⊃CX4/LCG-LUVs and 12.5 µM POPC⊃CF-LUVs (25 µM POPC total). The cuvette was placed into a thermostatted fluorimeter sample holder at 25.0 °C and gentl y stirred at 300 rpm. The fluorescence intensity w as simultaneous l y r eco rded in the CF chann el ( λ exc = 525 nm, λ em = 545 nm) and in the LCG channel ( λ exc = 369 nm, λ em = 475 nm) with an ex citation slit width of 5 nm and an emission slit width of 5 n m during addition of 20 µL peptide stock solution of varying concentrations at 60 s and 20 µL of a calibration

| Compound | Y30µM, membrane activity, CX4/LCG assay [1] | K a, binding constant of peptide to CX4 [2] | K a, binding constant of peptide to CX4 [3] | kind of pores (fluorescence response to spermine added after the peptide) [4] | membrane activity in the CX4/LCG channel compared with the CF channel [5] |
| --- | --- | --- | --- | --- | --- |
| N=C(N)NCCC[C@H](NC(=O)[C@H](CCCNC(=N)N)NC(=O)[C@H](CCCNC(=N)N)NC(=O)[C@H](CCCNC(=N)N)NC(=O)[C@H](CCCNC(=N)N)NC(=O)[C@H](CCCNC(=N)N)NC(=O)[C@H](CCCNC(=N)N)NC(=O)[C@H](CCCNC(=N)N)NC(=O)[C@@H](N)CCCNC(=N)N)C(=O)O [Peptide R9, nonaarginine] | 0.11 | (1.8 ± 0.4) × 10^8 M^−1 |  |  |  |
| N=C(N)NCCC[C@H](NC(=O)[C@H](CCCNC(=N)N)NC(=O)[C@H](CCCNC(=N)N)NC(=O)[C@H](CCCNC(=N)N)NC(=O)[C@H](CCCNC(=N)N)NC(=O)[C@H](CCCNC(=N)N)NC(=O)[C@@H](N)CCCNC(=N)N)C(=O)O [Peptide R7, heptaarginine] | 0.17 |  | (7.2 ± 0.5) × 10^7 M^−1 |  |  |
| CC[C@H](C)[C@H](NC(=O)CN)C(=O)NCC(=O)N[C@@H](C)C(=O)N[C@H](C(=O)N[C@@H](CC(C)C)C(=O)N[C@@H](CCCCN)C(=O)N[C@H](C(=O)N[C@@H](CC(C)C)C(=O)N[C@H](C(=O)N[C@H](C(=O)NCC(=O)N[C@@H](CC(C)C)C(=O)N1CCC[C@H]1C(=O)N[C@@H](C)C(=O)N[C@@H](CC(C)C)C(=O)N[C@H](C(=O)N[C@@H](CO)C(=O)N[C@@H](Cc1c[nH]c2ccccc12)C(=O)N[C@H](C(=O)N[C@@H](CCCCN)C(=O)N[C@@H](CCCNC(=N)N)C(=O)N[C@@H](CCCCN)C(=O)N[C@@H](CCCNC(=N)N)C(=O)N[C@@H](CCC(N)=O)C(=O)N[C@@H](CCC(N)=O)C(N)=O)[C@@H](C)CC)[C@@H](C)CC)[C@@H](C)O)[C@@H](C)O)C(C)C)C(C)C [Melittin] |  | (1.2 ± 0.3) × 10^7 M^−1 |  | forms stable equilibrium pores | higher activity with the CF assay |
